One series concerns ROS production in PMNs. The experiment in a line: Luminol-enhanced phagocyte chemiluminescence assay, ROS production in isolated PMNs (neutrophils). The class given is cell-based. The following applies: Homo sapiens, Neutrophil, zymosan activated, luminol probe, mean of triplicate ± SD. The procedure: (§1) Luminol-enhanced chemiluminescence assay was performed according to the previous reported method. Briefly 25 μL of whole blood or neutrophils (1 × 10^6/mL), suspended in Hank’s solution, were incubated with 25 μL compounds (1, 10, 100 μg/mL for whole blood and 0.5, 5, 50 μg/mL for neutrophils) for 30 min. Zymosan 25 μL (20 mg/mL), followed by 25 μL (7 × 10^-5 M) of luminol was added to make a final volume of 100 μL. A control without the compound was also run. Peak chemiluminescence was recorded using the luminometer. The luminometer was set with repeated scan mode, 50 scans with 30 s intervals and one second point measuring time.

The subject of series [1] is T-cell proliferation (PHA activated human peripheral mononuclear cells, PBMC). The experiment in a line: T-cell proliferation inhibition assay (PHA-activated PBMC, tritiated thymidine incorporation). The class given is cell-based. The settings on record: PHA (5 μg/mL) stimulated PBMC, 72 h + 18 h thymidine pulse, mean of triplicate ± SD, read-out: IC50, inhibitory effect on T-cell proliferation. The procedure: Peripheral blood mononuclear cells (PBMC) were isolated from heparinized venous blood of healthy adult donors by Ficoll–Hypaque gradient centrifugation. Cells were proliferated as reported earlier. Briefly, cells were cultured at a concentration of 2 × 10^6/mL in a 96-well round bottom tissue culture plate. Cells were stimulated with 5 μg/mL of phytohemagglutinin. Various concentrations of compounds were added to obtain final concentrations of 0.5, 5, 50 μg/mL, each in triplicate. The plate was incubated for 72 h at 37°C in 5% CO2 environment. After 72 h, cells were pulsed with 0.5 μCi/well, tritiated thymidine, and further incubated for 18 h. Cells were harvested onto a glass fiber filter by using cell harvester. The tritiated thymidine incorporation into the cells, which reflects the proliferation level, was measured by a liquid scintillation counter.

Series [2] relates to ROS production in whole blood phagocytes. The experiment in a line: Luminol-enhanced phagocyte chemiluminescence assay, ROS production in whole blood. The following applies: zymosan activated, luminol probe, mean of triplicate ± SD; for IC50: Homo sapiens. The class given is cell-based. The procedure:
as §1

A further series concerns T-cells. Further details: method as in PMID 11071398. The settings on record: by decreasing the activity of T-cells; cited from earlier work.

Each structure is given as a SMILES string. Where only a bound is given, the exact number is not on record here.

Turning to `C[C@]12CC(=CO)C(=O)C[C@@H]1CC[C@@H]1[C@@H]2CC[C@@]2(C)[C@H]1CC[C@]2(C)O` [Compound 1, 17β-hydroxy-2-(hydroxymethylene)-17α-methyl-5α-androstan-3-one, reference compound], the figures for the IC50 (in the series with ROS production in PMNs; in series [1]; in series [2]) were 6.3 ± 0.1 µg/mL, 7.5 ± 0.4 µg/mL and ~2 µg/mL, respectively. In addition, the “IC50, ROS production (Whole Blood phagocytes)” value in series [2] (human whole blood) was 2.3 ± 0.0 µg/mL. The “Immunosuppressant activity in vivo” value in the series with T-cells is on record as “immunosuppressant activity”.
In the case of `C[C@]12C=C(CO)C(=O)C[C@@H]1CC[C@@H]1[C@@H]2CC[C@@]2(C)[C@H]1CC[C@]2(C)O` [Compound 2, 17β-Hydroxy-2-(hydroxymethyl)-17α-methyl-5α-androstan-1-en-3-one], the IC50 in series [1] was 17.4 ± 1.2 µg/mL; in series [2] it was ~2 µg/mL.
Take `C[C@]12C[C@@H](CO)[C@H](O)C[C@@H]1CC[C@@H]1[C@@H]2CC[C@@]2(C)[C@H]1CC[C@@]2(O)CO` [Compound 3, 2α,17α-Di(hydroxymethyl)-5α-androstan-3β-17β-diol]: the IC50 in the series with ROS production in PMNs is > 50 µg/mL; in series [1] it was 17 ± 1.2 µg/mL; in series [2], > 100 µg/mL.
In the case of `CC12CC(O)C(O)CC1CCC1C2CCC2(C)C1CCC2(C)O` (stereo not drawn) [Compound 4, 17α-Methyl-5α-androstan-2α,3β-17β-triol], the melting point fell in the range of 124 to 125 °C. The IC50 in the series with ROS production in PMNs is > 50 µg/mL. Besides, the IC50 in series [1] stood at 11.8 ± 0.9 µg/mL. In series [2], the IC50 is > 100 µg/mL.
Consider `C[C@]12C=C(CO)C(=O)C=C1CC[C@@H]1[C@@H]2CC[C@@]2(C)[C@H]1CC[C@]2(C)O` [Compound 5, 17β-Hydroxy-2-(hydroxymethyl)-17α-methylandrost-1,4-dien-3-one], for which the melting point fell in the range of 163 to 164 °C. In addition, in the series with ROS production in PMNs, the IC50 was > 50 µg/mL. The IC50 in series [1] came out at 31.2 ± 1.9 µg/mL. Further, in series [2], the IC50 was > 100 µg/mL.
For `C[C@]12C[C@@H](CO)C(=O)C[C@@H]1CC[C@@H]1[C@@H]2CC[C@@]2(C)[C@H]1CC[C@]2(C)O` [Compound 6, 17β-Hydroxy-2α-(hydroxymethyl)-17α-methyl-5α-androstan-3-one] the same measures were 197 to 199 °C, > 50 µg/mL, 2.7 ± 0.2 µg/mL and > 100 µg/mL.
`C[C@]12C[C@@H](CO)[C@H](O)C[C@@H]1CC[C@@H]1[C@@H]2CC[C@@]2(C)[C@H]1CC[C@]2(C)O` [Compound 7, 2α-(Hydroxymethyl)-17α-methyl-5α-androstan-3β-17β-diol] returned a melting point of 279 to 281 °C. Besides, the IC50 in the series on ROS production in PMNs is > 50 µg/mL. For the same compound, the IC50 in series [1] was found to be 10.6 ± 0.4 µg/mL. Moreover, in series [2], the IC50 was found to be 25.6 µg/mL.
In the case of `CC(C)Cc1ccc(C(C)C(=O)O)cc1` (centres unmarked) [Ibuprofen, reference compound], the IC50 in the series on ROS production in PMNs stood at 2.5 ± 0.6 µg/mL; in series [2], 11.2 ± 1.9 µg/mL.
As for `C[C@]12C=CC(=O)C=C1CC[C@@H]1[C@@H]2[C@@H](O)C[C@@]2(C)[C@H]1CC[C@]2(O)C(=O)CO` [Prednisolone, reference compound], in series [1], the IC50 was < 3.1 µg/mL.
